# Laboratory results from US6780855B2, “11β-HALOGEN-7α-SUBSTITUTED ESTRATRIENES, PROCESS FOR THE PRODUCTION OF PHARMACEUTICAL PREPARATIONS THAT CONTAIN THESE 11β-HALOGEN-7α-SUBSTITUTED ESTRATRIENES AS WELL AS THEIR USE FOR THE PRODUCTION OF PHARMACEUTICAL AGENTS” (Schering Aktiengesellschaft, priority 1997, dated 2004).
# Legend:
# human estrogen receptor = experiment: Partial estrogenic action: transactivation assay, HeLa cells with HEGO and reporter gene rPR-TK-CAT; format: cell-based; conditions: concentration of 1 μm, negative value means suppression of reporter gene activity below controls
# Description: The partial estrogenic action of compounds according to the invention was determined by transactivation assays. HeLa cells were transfixed with human estrogen receptor expression vector (HEGO) and a reporter gene rPR-TK-CAT. This reporter gene contains the “Estrogen Responsive Element” of the rabbit progesterone receptor gene (+698/+729 region) before a TK-CAT gene (Savouret, J. F.; Bailly, A.; Misrahi, M.; Rauch, C.; Redeuilh, G.; Chauchereau, A.; Milgrom, E., Characterization of the Hormone Responsive Element Involved in the Regulation of the Progesterone Receptor Gene. EMBO J. 10, 1875-1883 (1991).
# The estrogenic action was determined at a concentration of 1 μm.
# MVLN cells = experiment: Transactivation assay for antiestrogenic action in MVLN cells (reporter gene Vit-TK-LUC); format: cell-based; conditions: Homo sapiens; MVLN cell line, in the presence of 0.1 nM of estradiol
# Description: (§1) The antiestrogenic action of the compounds according to the invention was determined in transactivation assays [Demirpence, E.; Duchesne, M.-J.; Badia, E.; Gagne, D. and Pons, M.: MVLN Cells: a Bioluminescent MCF-7-Derived cell Line to Study the Modulation of Estrogenic Activity; J. Steroid. Molec. Biol. Vol. 46, No. 3, 355-364 (1993) and Berry, M.; Metzger, D.; Chambon, P.: Role of the Two Activating Domains of the Estrogen Receptor in the Cell-type and Promoter-context Dependent Agonistic Activity of the Anti-estrogen 4-Hydroxytamoxifen; The EMBO Journal Vol. 9, 2811-2818 (1990)].
# The MVLN cells are transfixed in a stable manner with reporter gene Vit-TK-LUC. The antiestrogenic active strength was determined in the presence of 0.1 nM of estradiol.
# (§2) The IC50 values for the new compounds are in the nanomolar range. In the MVLN cell line, the following IC50 values are produced for the compound of Examples 3 and 8 (execution of test according to the above-indicated bibliographic references): […]
# uterus = experiment: Uterus growth test in infantile rats (antiestrogenic action), p.o.; format: in vivo; conditions: 0.3 mg p.o. once daily over 3 days with 0.5 μg estradiol benzoate s.c., inhibition compared to EB-control
# Description: The uterus growth test in infantile rats, p.o. (test on antiestrogenic action in vivo) also confirms the antiestrogenic action of the compounds according to the invention. The test was performed as described below:
# Uterus Growth Test in Infantile Rats (Antiestrogenic Action)
# In rodents, the uterus reacts to the application of estrogens with an increase in weight (both proliferation and water retention). This growth can be inhibited in a dose-dependent manner by simultaneous administration of compounds that have an antiestrogenic action.
# Infantile female rats weighing 35-45 g at the beginning of the test, 5-6 animals per dose.
# Formulation and Administration of the Substances: […]
# For the p.o. administration, the substances are dissolved in 1 part ethanol (E) and made up with 9 parts peanut oil (EÖ).
# The young rats just dropped by the mothers are delivered for acclimation one day before the beginning of treatment and immediately supplied with food—right in the cage. […] The moist weight (less contents) is determined from the prepared uteri. […]
# The average values are determined with standard deviation (X+SD) and the significance of the differences in the control group (EB) in the Dunnett Test (p<0.05) for each group from the relative organ weights (mg/100 g of body weight). […] The relative actions of the test substances are determined by co-variance analysis and regression analysis.
# HeLa = experiment: Transactivation assay for antiestrogenic action in HeLa cells; format: cell-based; conditions: Homo sapiens
# Description: as §1, §2
SMILES,melting point,Activation of the rPR-TK Promoter [% estradiol] (human estrogen receptor),IC50 (MVLN cells),Antiuterotrophic action at 0.3 mg [% inhibition] (uterus),IC50 (HeLa)
CN(CCCCCCCC(F)(F)C(F)(F)F)CCCCC[C@@H]1Cc2cc(O)ccc2[C@@H]2[C@@H]1[C@@H]1CC[C@H](O)[C@@]1(C)C[C@@H]2F,110 °C,–,–,–,–
"CN(CCCCC[C@@H]1Cc2cc(O)ccc2[C@@H]2[C@@H]1[C@@H]1CC[C@H](O)[C@@]1(C)C[C@@H]2F)CCCOCc1ccccc1 [Example 22, 7α-{5-[(3-Benzyloxy-propyl)-methyl-amino]-pentyl}-11β-fluor-estra-1,3,5(10)-triene-3,17β-diol]",–,53 % estradiol,–,–,–
"CN(CCCCCCC(F)(F)C(F)(F)F)CCCCC[C@@H]1Cc2cc(O)ccc2[C@@H]2[C@@H]1[C@@H]1CC[C@H](O)[C@@]1(C)C[C@@H]2F [Example 12, 11β-Fluoro-7α-{5-[methyl-(7,7,8,8,8-pentafluor-octyl)-amino]-pentyl}-estra-1,3,5(10)-triene-3,17β-diol]",–,34 % estradiol,–,–,–
"CN(CC=C(F)C(F)(F)C(F)(F)C(F)(F)F)CCCCC[C@@H]1Cc2cc(O)ccc2[C@@H]2[C@@H]1[C@@H]1CC[C@H](O)[C@@]1(C)C[C@@H]2F [Example 18, 11β-Fluoro-7α-{5-[methyl-(3,4,4,5,5,6,6,6-octafluoro-hex-2-enyl)-amino]-pentyl}-estra-1,3,5(10)-triene-3,17β-diol]",–,29 % estradiol,–,–,–
"CN(CCCCCCCCC(F)(F)C(F)(F)F)CCCCC[C@@H]1Cc2cc(O)ccc2[C@@H]2[C@@H]1[C@@H]1CC[C@H](O)[C@@]1(C)C[C@@H]2F [Example 3, 11β-Fluoro-7α-{5-[methyl-(9,9,10,10,10-pentafluoro-decyl)-amino]-pentyl}-estra-1,3,5(10)-triene-3,17β-diol]",–,−25 % estradiol,6.3 nM,68 % inhibition,0.2 nM
"CN(CCCCC[C@@H]1Cc2cc(O)ccc2[C@@H]2[C@@H]1[C@@H]1CC[C@H](O)[C@@]1(C)C[C@@H]2F)CCCC(F)(F)C(F)(F)F [Example 8, 11β-Fluoro-7α-{5-[methyl-(4,4,5,5,5-pentafluoro-pentyl)-amino]-pentyl}-estra-1,3,5(10)-triene-3,17β-diol]",–,48 % estradiol,37 nM,0 % inhibition,8 nM
